A short description of data set [1]: Cytotoxicity against C57BL/6 mouse spleen cells assessed as growth inhibition incubated for 24 hrs at 37 degC by propidium iodide stain based flow cytometry method. In kind it is cell-based. To be noted: for CC50 at 24 h: C57BL/6, mouse, spleen cells, read-out: ED50; for ED50: mouse, spleen, 24 h. Background: In flow cytometry, cells or beads pass a laser one at a time.

In data set [2] the test system is Trypanosoma cruzi. In words: Antiparasitic activity against trypomastigote form of Trypanosoma cruzi Tulahuen-lacZ infected in LLC-MK2 ATCC cells assessed as parasite viability incubated for 4 days at 37 degC by chlorophenol beta-D-galactopyranose substrate based trypanocidal assay. In kind it is functional, organism-based. To be noted: LLC-MK2, 96 h.
The test system of data set [3] is Trypanosoma cruzi. In words: Antiparasitic activity against trypomastigote form of Trypanosoma cruzi Y strain assessed as parasite viability at 62.5 to 500 uM incubated for 24 hrs. In kind it is functional, organism-based.
Data set [4] can be described thus: Selectivity index, ratio of ED50 for C57BL/6 mouse spleen cells to IC50 for Trypanosoma cruzi Tulaheun. It counts as functional.
The test system of data set [5] is Trypanosoma cruzi. Kind of data set: Antiparasitic activity against amastigote form of Trypanosoma cruzi Y strain infected in bone marrow macrophage cells assessed as amastigote viability incubated for 4 days by rapid panoptic stain based microscopy method. To be noted: 96 h. It counts as functional, organism-based.
The test system of data set [6] is Trypanosoma cruzi. Kind of data set: Potency index, ratio of IC50 of benznidazole for Trypanosoma cruzi Tulahuen to IC50 of test compound for Trypanosoma cruzi Tulahuen. It counts as functional.
The subject of data set [7] is Trypanosoma cruzi. Kind of data set: Antiparasitic activity against trypomastigote form of Trypanosoma cruzi Y strain infected in Swiss mouse assessed as reduction in blood trypomastigote viability at 100 mg/kg/day, po starting on day 5 post-infection and followed for 10 consecutive days by light microscopy method. In kind it is functional, organism-based.
The nature of data set [8]: Solubility of the compound in water. It counts as physicochemical. Conditions: buffer.

Activity calls are given as the source filed them. The rule behind the calls is not given here.

Take `CCC(O)Cc1cn(CC(=O)NCc2ccccc2)nn1` (stereo not drawn): in data set [1], the CC50 at 24 h turned out to be 630 µM. Moreover, the IC50 in the data set with Trypanosoma cruzi [2] was over 500 µM.

For the compound `O=C(Cn1cc(-c2ccccc2C(F)(F)F)nn1)NCc1ccccc1`, the ED50 entry in data set [1] is recorded as “Non-toxic”. The IC50 in the data set with Trypanosoma cruzi [2] is over 100 µM.

Consider `O=C(Cn1cc(-c2cccc(F)c2)nn1)NCc1ccccc1`, for which the ED50 entry in data set [1] was “Non-toxic”. Besides, the IC50 in the data set on Trypanosoma cruzi [2] was over 100 µM.

Take `O=C(Cn1cc(-c2ccccc2[N+](=O)[O-])nn1)NCc1ccccc1`: the ED50 result in data set [1] is given as “Non-toxic”. Besides, the IC50 in the data set on Trypanosoma cruzi [2] was over 100 µM. In addition, the result in the data set with Trypanosoma cruzi [3] was inactive.

`Cc1ccccc1-c1cn(CC(=O)NCc2ccccc2)nn1`: in data set [1], the CC50 at 24 h amounted to 940 µM. In addition, the IC50 with Trypanosoma cruzi [2] was over 100 µM. The “Selectivity Index” value in data set [4] worked out at 3.2.

Consider `O=C(Cn1cc(C(=O)O)nn1)NCc1ccccc1`, for which the ED50 result in data set [1] was “Non-toxic”. For the same compound, in the data set on Trypanosoma cruzi [2], the IC50 was over 100 µM.

Take `Nc1cccc(-c2cn(CC(=O)NCc3ccccc3)nn2)c1`: the CC50 at 24 h in data set [1] came to 800 µM. Besides, the IC50 with Trypanosoma cruzi [2] was over 100 µM. Besides, in data set [4], the “Selectivity Index” value was found to be 4.4.

Take `O=C(O)CCc1cn(CC(=O)NCc2ccccc2)nn1`: in data set [1], the CC50 at 24 h was determined as 1420 µM. The IC50 in the data set with Trypanosoma cruzi [2] is over 500 µM.

Consider `COc1ccc(-c2cn(CC(=O)NCc3ccccc3)nn2)cc1`, for which the ED50 result in data set [1] is on record as “Non-toxic”. In addition, the IC50 with Trypanosoma cruzi [2] was over 100 µM.

With `O=C(Cn1cc(CCCCO)nn1)NCc1ccccc1`, the CC50 at 24 h in data set [1] was 1700 µM. Besides, in the data set with Trypanosoma cruzi [2], the IC50 is over 400 µM.

Take `O=C(Cn1ccnc1[N+](=O)[O-])NCc1ccccc1` [BENZNIDAZOLE]: the results for the IC50 in the data set on Trypanosoma cruzi [5] and in the data set on Trypanosoma cruzi [2] were 16 µM and 34 µM, respectively. Besides, in the data set with Trypanosoma cruzi [3], the outcome was Active.

On to `O=C(Cn1nncc1CO)NCc1ccccc1`, for which the CC50 at 24 h in data set [1] was over 2000 µM. For the same compound, the IC50 in the data set with Trypanosoma cruzi [2] was over 100 µM.

As to `Nc1ccc(-c2cn(CC(=O)NCc3ccccc3)nn2)cc1`, the CC50 at 24 h in data set [1] stood at 1240 µM. Moreover, the IC50 in the data set on Trypanosoma cruzi [2] was over 100 µM. In addition, in data set [4], the “Selectivity Index” value stood at 7.7.

With `COc1cc(OC)cc(-c2cn(CC(=O)NCc3ccccc3)nn2)c1`, the ED50 entry in data set [1] is “Non-toxic”. Also, the IC50 with Trypanosoma cruzi [2] is over 100 µM.

As for `O=C(Cn1nncc1-c1ccc([N+](=O)[O-])cc1)NCc1ccccc1`, the ED50 entry in data set [1] is listed as “Non-toxic”. Also, the IC50 in the data set on Trypanosoma cruzi [2] was over 100 µM. In addition, the outcome with Trypanosoma cruzi [3] was inactive.

For the compound `O=C(Cn1cc(-c2cccc(C(F)(F)F)c2)nn1)NCc1ccccc1`, in data set [1], the ED50 result is reported as “Non-toxic”. For the same compound, the IC50 in the data set on Trypanosoma cruzi [2] was over 100 µM.

`NCc1cn(CC(=O)NCc2ccccc2)nn1`: the CC50 at 24 h in data set [1] is over 2000 µM. Besides, the IC50 in the data set on Trypanosoma cruzi [2] is over 500 µM.

On to `O=C(O)CCCCc1cn(CC(=O)NCc2ccccc2)nn1`, for which the CC50 at 24 h in data set [1] came out at 1080 µM. Besides, the IC50 in the data set with Trypanosoma cruzi [2] was over 500 µM.

As for `CC(C)(C)OC(=O)NCc1cn(CC(=O)NCc2ccccc2)nn1`, the CC50 at 24 h in data set [1] is over 2000 µM. Further, the IC50 with Trypanosoma cruzi [2] was over 100 µM.

As for `Cc1ccc(-c2cn(CC(=O)NCc3ccccc3)nn2)cc1`, in data set [1], the ED50 entry was “Non-toxic”. For the same compound, the IC50 in the data set on Trypanosoma cruzi [2] was over 100 µM.

As for `CC(C)(O)c1cn(CC(=O)NCc2ccccc2)nn1`, the CC50 at 24 h in data set [1] was found to be 1600 µM. In addition, in the data set with Trypanosoma cruzi [2], the IC50 is over 400 µM.

For the compound `O=C(Cn1cc(-c2ccc([N+](=O)[O-])cc2)nn1)NCc1ccccc1`, the CC50 at 24 h in data set [1] came to 800 µM. Further, in the data set with Trypanosoma cruzi [6], the “Ratio IC50” value is given as 5. Besides, the result in the data set on Trypanosoma cruzi [7] and with Trypanosoma cruzi [3] was Active. Besides, the IC50 in the data set on Trypanosoma cruzi [5] was 41.2 µM; in the data set on Trypanosoma cruzi [2], 7 µM. In addition, the solubility entry in data set [8] is “Insoluble”. In addition, the “Selectivity Index” value in data set [4] came out at 114.3.

As for `COc1cccc(-c2cn(CC(=O)NCc3ccccc3)nn2)c1`, the CC50 at 24 h in data set [1] came out at 840 µM. Also, the results for the IC50 with Trypanosoma cruzi [5] and with Trypanosoma cruzi [2] were 61.8 µM and 40 µM, respectively. The “Selectivity Index” value in data set [4] is given as 21.

As for `O=C(Cn1cc(C(=O)OCc2ccccc2)nn1)NCc1ccccc1`, in data set [1], the CC50 at 24 h turned out to be 720 µM. Also, the IC50 in the data set on Trypanosoma cruzi [2] is over 500 µM.

For the compound `O=C(Cn1cc(-c2cccc([N+](=O)[O-])c2)nn1)NCc1ccccc1`, the CC50 at 24 h in data set [1] was over 2000 µM. In addition, in the data set on Trypanosoma cruzi [2], the IC50 was over 100 µM. Also, in the data set with Trypanosoma cruzi [3], the outcome was inactive.

As to `COc1cccc(-c2cnnn2CC(=O)NCc2ccccc2)c1`, the CC50 at 24 h in data set [1] is over 2000 µM. Moreover, the IC50 in the data set on Trypanosoma cruzi [5] was 60.4 µM; in the data set on Trypanosoma cruzi [2], 50 µM.

As to `O=C(Cn1nncc1-c1cccc([N+](=O)[O-])c1)NCc1ccccc1`, the ED50 result in data set [1] is listed as “Non-toxic”. In the data set with Trypanosoma cruzi [2], the IC50 was 86 µM. In addition, the result with Trypanosoma cruzi [3] was inactive.

Take `O=C(Cn1cc(CO)nn1)NCc1ccccc1`: the CC50 at 24 h in data set [1] turned out to be 490 µM. Besides, in the data set on Trypanosoma cruzi [2], the IC50 is over 500 µM.

By IC50 is commonly meant the concentration that gives 50% inhibition.

(Values after ChEMBL document CHEMBL3627627, “1,2,3-Triazole-based analogue of benznidazole displays remarkable activity against Trypanosoma cruzi” (Bioorg Med Chem, 2015).)
